US8652770B2, “Storage of platelets under pressure with xenon containing atmosphere” (Rich Products Corporation, priority 2008, dated 2014)

How the values were obtained:
Assay type in all cases: cell-based, rabbit
platelets [1] = test: Platelet cell counting (hemocytometer) after storage of PRP; set-up: # cells: unit not given here; conditions: 4° C.; for # cells: Table 3, 4 bars total pressure of gas, 7 days; for Cell number: Input = 100%
Procedure: Blood was obtained by puncturing a rabbit marginal ear vein and collecting blood in a sterile vacuum tube. About 10-15 ml of blood was used, although the amount taken from any particular individual can be varied by the skilled artisan according to routine considerations, such as the size of the individual and the intended use of the platelets prepared according to the method of the invention.
The blood was centrifuged at a speed of approximately 200 g for 10 minutes to separate red blood cells (RBC) and platelet rich plasma (PRP). The PRP was transferred to another tube.
(§1) Two microliters of PRP were used to count cells essentially as described in Born et al. (J. Physiol. (1963) Vol. 168, pp 178-195). An additional two microliters were used for antibody staining and flow cytometry analysis performed essentially as reported in Shattil et al. (1987) Detection, Blood Vol. 70 p 307-315.
(§2) For determining platelet aggregation, approximately 250 microliters of PRP were used for a pre-treatment aggregation test. The remaining PRP was transferred to test tubes in which the atmosphere was adjusted to include xenon under two distinct pressures (4 bars of total pressure created by introducing 99.999% xenon into the test tube in a first set of experiments, and 5.3 bars of total pressure, also created by introducing 99.999% xenon into the test tube, in a second set of experiments). For adjusting the atmosphere in the containers, the test tubes were covered with rubberized caps that were punctured for introducing xenon. The test tubes were put into an experimental chamber and the atmosphere in the test tubes was adjusted by filling the test tubes with xenon using a 0.2-micrometer aseptic filter. Pressure changes in the tubes were measured using a manometer. Negative controls (no adjustment of the composition of the atmosphere in which the platelets were held) were also performed.
(§3) The chambers were shaken at 150-200 rpm on a Biosan OS-10 orbital shaker for one hour at ambient temperature (approximately 23° C.) to dissolve xenon in the PRP. The experimental chambers were then stored at approximately 4° C. with shaking at 50-70 rpm using a Biosan OS-10 orbital shaker and removed at one and two week time points for experiments under 4 bars of xenon pressure. The experiment using the initial xenon pressure of 5.3 bars were stored at 4° C. for 1 week.
After storage, the chambers were removed from refrigeration and kept at ambient temperature (approximately 23° C.) for 30 minutes with shaking at approximately 150-200 rpm. The atmosphere was then slowly allowed to equilibrate with ambient pressure of a period of 30 minutes by allowing the atmosphere in the chamber and in the test tubes to equilibrate with the atmosphere outside the test tubes through a specially adapted valve. […]
Subsequent to allowing the atmosphere in the experimental and control tubes to equilibrate with ambient pressure and temperature, the PRP samples were analyzed using conventional hemocytometer based cell counting, induced aggregation analysis using ADP and epinephrine, whereby aggregation was determined using manual counting and aggregometer analysis according to standard techniques, and by cd62p/cd61 immunostaining and flow cytometry analysis performed on an Epic XL, Beckman-Coulter cytometry machine. […]

platelets [2] = test: ADP-induced platelet aggregation, xenon compared to argon, vacuum step omitted; conditions: Table 3, 4 bars total pressure of gas, 4° C., 7 days, no vacuum step
Procedure: In view of the result obtained in Table 2, we performed another set of experiments to compare the properties of xenon to argon in ADP-induced platelet aggregation assays, the results of which are depicted in Table 3.
The experiments summarized in Table 3 were performed using an atmosphere of 4 bars total pressure created by introducing xenon or argon into the containers using essentially the same techniques as for the experiments described for Tables 1 and 2, except the PRP samples were cooled to 4° C. and held at approximately in an atmosphere of 3.8 bar xenon for 7 days. In this experiment, the initial partial pressure of xenon was 4 bars, but the pressure dropped to 3.8 bars during storage, presumably due to dissolution of xenon into the platelets from the atmosphere in the container.

platelets [3] = test: ADP/epinephrine induced platelet aggregation after storage of PRP; conditions: for Aggregation (ADP/epinephrine): Xe 4 bars, Input = 100%; for Aggregation (ADP/epinephrine), %: Table 2, 7 days Xe, 4 bars
Excerpt: as §2, §3
After storage, the chambers were removed from refrigeration and kept at ambient temperature (approximately 23° C.) for 30 minutes with shaking at approximately 150-200 rpm. The atmosphere was then slowly allowed to equilibrate with ambient pressure of a period of 30 minutes by allowing the atmosphere in the chamber and in the test tubes to equilibrate with the atmosphere outside the test tubes through a specially adapted valve. Once the atmosphere in the chambers and test tubes equilibrated with ambient pressure, a vacuum was applied for approximately three minutes at approximately 380 mmHg to remove residual xenon from the PRP.
(§4) Analysis of the platelet function after storage included platelet counting at a hemocytometer, platelet aggregation tests using ADP and epinephrine as aggregation inducing agents, with manual counting and analysis using an aggregometer, and CD62p/CD61 antibody staining, with subsequent flow cytometry analysis on Epic XL, Beckman-Coulter generally as described in Shattil et al. (1987) Blood Vol. 70 p […] of platelets were stained using anti-CD62p and anti-CD61 antibodies obtained from commercial vendors.
(§5) Subsequent to allowing the atmosphere in the experimental and control tubes to equilibrate with ambient pressure and temperature, the PRP samples were analyzed using conventional hemocytometer based cell counting, induced aggregation analysis using ADP and epinephrine, whereby aggregation was determined using manual counting and aggregometer analysis according to standard techniques, and by cd62p/cd61 immunostaining and flow cytometry analysis performed on an Epic XL, Beckman-Coulter cytometry machine. The cdc62p/cd61 analysis was performed using commercially available antibodies and generally according to the known method reported in Shattil et al. (1987) Detection of activated platelets in whole blood using activation-dependent monoclonal antibodies and flow cytometry, Blood Vol. 70 p 307-315.

Cd41/62p = Cd41/62p immunostaining and flow cytometry (platelet activation markers); conditions: for Cd41/62p: % of cells with activation markers, Xe 4 bars, 4° C., Input 13%
Excerpt: We analyzed platelet activation using a standard methodology comprising immunostaining platelets for CD62 and CD41 and subsequent analysis by flow cytometry. […] Thus, it will be recognized by those skilled in the art that the invention provides stored platelet preparations that are useful for treating individuals in need of platelet transfusion therapy. It is therefore considered that practicing the method of the invention transforms a platelet concentrate that would not ordinarily tolerate refrigeration into a platelet concentrate that can withstand refrigeration such that the platelet concentrate remains useful for transfusions after being stored at refrigerated temperature for at least two weeks. It will also be recognized that the platelet concentrate has other potential uses, such as in high-throughput assays to screen a test agent for the capability to modify platelet function.
as §1, §4, §5
In Table 1, “Input” represents pre-treatment/storage measurements. Cell number and Aggregation induced by ADP/epinephrine before performing the method are used to set 100% values. […] NG=no gas. […]

Row | Compound | # cells (platelets [1]) | Aggregation % (platelets [2]) | improvement of ADP/Epinephrine induced aggregation by evacuating residual xenon with vacuum (platelets [3]; 7 days Xe 4 bars 4° C., with vs without vacuum) | Aggregation (ADP/epinephrine) (platelets [3]; PRP stored 7 days, 4° C.) | Aggregation (ADP/epinephrine) (platelets [3]; PRP stored 14 days, 4° C.) | Aggregation (ADP/epinephrine), % (platelets [3]; 4° C. with three minutes vacuum application) | Aggregation (ADP/epinephrine), % (platelets [3]; 4° C., no vacuum) | induced aggregation higher than no gas control (platelets [3]; after 2 weeks of storage, 4 bar xenon treated sample vs NG control) | Cell number (platelets [1]; PRP stored 7 days, Xe 4 bars) | Cell number (platelets [1]; PRP stored 7 days, Xe 5.3 bars) | Cell number (platelets [1]; PRP stored 14 days, Xe 4 bars) | Cd41/62p (Cd41/62p; PRP stored 7 days) | Cd41/62p (Cd41/62p; PRP stored 14 days) | surface CD62 and CD41 over control platelet concentrates not treated with xenon (Cd41/62p; platelet concentrates treated by the method) | inhibition of spontaneous activation (Cd41/62p) relative to the NG control (Cd41/62p; xenon 4 bar atmosphere treated samples)
1 | [Ar] [Argon, argon, reference compound] | 594 *106 | 100% |  |  |  |  |  |  |  |  |  |  |  |  | 
2 | [Xe] [Xenon, xenon] | 674 *106 | 87% | 20% | 83% | 54.5%^ | 72% | 53% | about 20% | 77.5%^ | 12.6% | 59% | 39% | 33% | two-fold less | two-fold better inhibition
